Values of other authors, collected in patent US20110223258A1 (priority 2008, published 2011).

Settings: aqueous solution

For O=P([O-])(O)O.O=P([O-])(O)O.O=P([O-])(O)O.[Fe+3] [Fe(H2PO4)3, iron(III) dihydrogen phosphate], which Stability in solution is on record?
The Stability in solution was “decomposes in the solution as a result of hydrolysis”.
